In ChEMBL document CHEMBL3885881, “DrugMatrix”:
Positions of bridges follow the written chain, without caps; N, C: chain ends. Non-standard residues stand in square brackets, D forms with d. Residues, ends and D or L forms follow the SMILES beside them. *: point of attachment. Ileψ(thiazoline)Cys = CC[C@H](C)[C@H](N)C1=N[C@H](C(=O)*)CS1; dOrn = NCCC[C@@H](N)C(=O)O

Species: Rattus norvegicus
Experiment: DrugMatrix - Regimen: Daily Repeat
Assay type: toxicity, organism-based, Sprague-Dawley
Parameters: regimen Daily Repeat, gender Male, age 6-8 weeks
Settings: in vivo, sc, route subcutaneous, […]; for ABSOLUTE BASOPHIL / ABSOLUTE EOSINOPHIL / ABSOLUTE LYMPHOCYTE / ABSOLUTE MONOCYTE / ABSOLUTE SEGMENTED NEUTROPHIL / BASOPHIL / EOSINOPHIL / ERYTHROCYTE COUNT / HEMATOCRIT / HEMOGLOBIN / LEUKOCYTE COUNT / LYMPHOCYTE / MEAN CORPUSCULAR HEMOGLOBIN / MEAN CORPUSCULAR HEMOGLOBIN CONCENTRATION / MEAN CORPUSCULAR VOLUME / MONOCYTE / NEUTROPHIL / NUCLEATED RED BLOOD CELLS / PLATELET COUNT: tissue Blood; for ALANINE AMINOTRANSFERASE / ALBUMIN / ALKALINE PHOSPHATASE / ASPARTATE AMINOTRANSFERASE / BLOOD UREA NITROGEN / CARBON DIOXIDE / CHLORIDE / CHOLESTEROL / CREATINE PHOSPHOKINASE / CREATININE / GLUCOSE / LACTATE DEHYDROGENASE / LIPASE / PHOSPHORUS / POTASSIUM / SODIUM / TOTAL BILIRUBIN / TOTAL PROTEIN / URIC ACID: tissue Plasma
[1] = 380 mg/kg, 72 h, dose level High, time 3 day
[2] = 380 mg/kg, 120 h, dose level High, time 5 day
[3] = 72 h, dose 7.6 mg/Kg, dose level Low, time 3 day
[4] = 120 h, dose 7.6 mg/Kg, dose level Low, time 5 day

CC[C@H](C)[C@H](N)C1=N[C@H](C(=O)N[C@@H](CC(C)C)C(=O)N[C@H](CCC(=O)O)C(=O)N[C@H](C(=O)N[C@H]2CCCCNC(=O)[C@H](CC(N)=O)NC(=O)[C@@H](CC(=O)O)NC(=O)[C@H](Cc3cnc[nH]3)NC(=O)[C@@H](Cc3ccccc3)NC(=O)[C@H]([C@@H](C)CC)NC(=O)[C@@H](CCCN)NC2=O)[C@@H](C)CC)CS1 [BACITRACIN] ({Ileψ(thiazoline)Cys}-L[dE]IK[dOrn]I[dF]H[dD]N; lactam 4-C)
ABSOLUTE BASOPHIL [1]: 0 CELLS/uL
ABSOLUTE EOSINOPHIL [1]: 42 CELLS/uL
ABSOLUTE LYMPHOCYTE [1]: 8742.33 CELLS/uL
ABSOLUTE MONOCYTE [1]: 132.67 CELLS/uL
ABSOLUTE SEGMENTED NEUTROPHIL [1]: 3249.67 CELLS/uL
BASOPHIL [1]: 0%
EOSINOPHIL [1]: 0.33%
ERYTHROCYTE COUNT [1]: 4.93 x10E6/uL
HEMATOCRIT [1]: 31.17%
HEMOGLOBIN [1]: 12.4 G/DL
LEUKOCYTE COUNT [1]: 12.17 x10E3/uL
LYMPHOCYTE [1]: 71.67%
MEAN CORPUSCULAR HEMOGLOBIN [1]: 25.1 pg
MEAN CORPUSCULAR HEMOGLOBIN CONCENTRATION [1]: 39.8 G/DL
MEAN CORPUSCULAR VOLUME [1]: 63.1 fL
MONOCYTE [1]: 1%
NEUTROPHIL [1]: 27%
NUCLEATED RED BLOOD CELLS [1]: 0.67 /100WBC
PLATELET COUNT [1]: 1256.33 x10E3/uL
ALANINE AMINOTRANSFERASE [1]: 168 u/L
ALBUMIN [1]: 3.13 G/DL
ALKALINE PHOSPHATASE [1]: 252 u/L
ASPARTATE AMINOTRANSFERASE [1]: 595.67 u/L
BLOOD UREA NITROGEN [1]: 127.67 mg/dL
CARBON DIOXIDE [1]: 23.33 mmol/L
CHLORIDE [1]: 90.67 MEQ/L
CHOLESTEROL [1]: 114.33 mg/dL
CREATINE PHOSPHOKINASE [1]: 288.33 u/L
CREATININE [1]: 4.29 mg/dL
GLUCOSE [1]: 146.67 mg/dL
LACTATE DEHYDROGENASE [1]: 577.67 u/L
LIPASE [1]: 8.67 u/L
PHOSPHORUS [1]: 15.2 mg/dL
POTASSIUM [1]: 7.31 MEQ/L
SODIUM [1]: 136.43 MEQ/L
TOTAL BILIRUBIN [1]: 0.37 mg/dL
TOTAL PROTEIN [1]: 5.8 G/DL
URIC ACID [1]: 1.37 mg/dL
ABSOLUTE BASOPHIL [2]: 0 CELLS/uL
ABSOLUTE EOSINOPHIL [2]: 0 CELLS/uL
ABSOLUTE LYMPHOCYTE [2]: 16005 CELLS/uL
ABSOLUTE MONOCYTE [2]: 832 CELLS/uL
ABSOLUTE SEGMENTED NEUTROPHIL [2]: 5863 CELLS/uL
BASOPHIL [2]: 0%
EOSINOPHIL [2]: 0%
ERYTHROCYTE COUNT [2]: 5.69 x10E6/uL
HEMATOCRIT [2]: 34%
HEMOGLOBIN [2]: 13.77 G/DL
LEUKOCYTE COUNT [2]: 22.7 x10E3/uL
LYMPHOCYTE [2]: 70.67%
MEAN CORPUSCULAR HEMOGLOBIN [2]: 24.2 pg
MEAN CORPUSCULAR HEMOGLOBIN CONCENTRATION [2]: 40.47 G/DL
MEAN CORPUSCULAR VOLUME [2]: 59.77 fL
MONOCYTE [2]: 3.67%
NEUTROPHIL [2]: 25.67%
NUCLEATED RED BLOOD CELLS [2]: 0.33 /100WBC
PLATELET COUNT [2]: 1853.67 x10E3/uL
ALANINE AMINOTRANSFERASE [2]: 104 u/L
ALBUMIN [2]: 3.33 G/DL
ALKALINE PHOSPHATASE [2]: 228.33 u/L
ASPARTATE AMINOTRANSFERASE [2]: 305.67 u/L
BLOOD UREA NITROGEN [2]: 48 mg/dL
CARBON DIOXIDE [2]: 25.33 mmol/L
CHLORIDE [2]: 96.33 MEQ/L
CHOLESTEROL [2]: 99.67 mg/dL
CREATINE PHOSPHOKINASE [2]: 335 u/L
CREATININE [2]: 0.95 mg/dL
GLUCOSE [2]: 137.67 mg/dL
LACTATE DEHYDROGENASE [2]: 484.67 u/L
LIPASE [2]: 9 u/L
PHOSPHORUS [2]: 11.2 mg/dL
POTASSIUM [2]: 6.3 MEQ/L
SODIUM [2]: 133.53 MEQ/L
TOTAL BILIRUBIN [2]: 0.17 mg/dL
TOTAL PROTEIN [2]: 6.1 G/DL
URIC ACID [2]: 2.73 mg/dL
ABSOLUTE BASOPHIL [3]: 0 CELLS/uL
ABSOLUTE EOSINOPHIL [3]: 0 CELLS/uL
ABSOLUTE LYMPHOCYTE [3]: 8685.33 CELLS/uL
ABSOLUTE MONOCYTE [3]: 135 CELLS/uL
ABSOLUTE SEGMENTED NEUTROPHIL [3]: 1146.33 CELLS/uL
BASOPHIL [3]: 0%
EOSINOPHIL [3]: 0%
ERYTHROCYTE COUNT [3]: 6.24 x10E6/uL
HEMATOCRIT [3]: 39.37%
HEMOGLOBIN [3]: 15.53 G/DL
LEUKOCYTE COUNT [3]: 9.97 x10E3/uL
LYMPHOCYTE [3]: 87.33%
MEAN CORPUSCULAR HEMOGLOBIN [3]: 24.9 pg
MEAN CORPUSCULAR HEMOGLOBIN CONCENTRATION [3]: 39.47 G/DL
MEAN CORPUSCULAR VOLUME [3]: 63.13 fL
MONOCYTE [3]: 1.33%
NEUTROPHIL [3]: 11.33%
NUCLEATED RED BLOOD CELLS [3]: 0 /100WBC
PLATELET COUNT [3]: 1341.67 x10E3/uL
ALANINE AMINOTRANSFERASE [3]: 22.67 u/L
ALBUMIN [3]: 4.77 G/DL
ALKALINE PHOSPHATASE [3]: 372.67 u/L
ASPARTATE AMINOTRANSFERASE [3]: 95 u/L
BLOOD UREA NITROGEN [3]: 17.33 mg/dL
CARBON DIOXIDE [3]: 22 mmol/L
CHLORIDE [3]: 105.67 MEQ/L
CHOLESTEROL [3]: 79.33 mg/dL
CREATINE PHOSPHOKINASE [3]: 677 u/L
CREATININE [3]: 0.21 mg/dL
GLUCOSE [3]: 182 mg/dL
LACTATE DEHYDROGENASE [3]: 728.67 u/L
LIPASE [3]: 9 u/L
PHOSPHORUS [3]: 14.07 mg/dL
POTASSIUM [3]: 6.5 MEQ/L
SODIUM [3]: 151.33 MEQ/L
TOTAL BILIRUBIN [3]: 0.2 mg/dL
TOTAL PROTEIN [3]: 6.97 G/DL
URIC ACID [3]: 2.53 mg/dL
ABSOLUTE BASOPHIL [4]: 0 CELLS/uL
ABSOLUTE EOSINOPHIL [4]: 40 CELLS/uL
ABSOLUTE LYMPHOCYTE [4]: 10682 CELLS/uL
ABSOLUTE MONOCYTE [4]: 80 CELLS/uL
ABSOLUTE SEGMENTED NEUTROPHIL [4]: 864.67 CELLS/uL
BASOPHIL [4]: 0%
EOSINOPHIL [4]: 0.33%
ERYTHROCYTE COUNT [4]: 4.88 x10E6/uL
HEMATOCRIT [4]: 31.97%
HEMOGLOBIN [4]: 12.4 G/DL
LEUKOCYTE COUNT [4]: 11.67 x10E3/uL
LYMPHOCYTE [4]: 90.67%
MEAN CORPUSCULAR HEMOGLOBIN [4]: 25.37 pg
MEAN CORPUSCULAR HEMOGLOBIN CONCENTRATION [4]: 38.97 G/DL
MEAN CORPUSCULAR VOLUME [4]: 65.07 fL
MONOCYTE [4]: 0.67%
NEUTROPHIL [4]: 8.33%
NUCLEATED RED BLOOD CELLS [4]: 0.67 /100WBC
PLATELET COUNT [4]: 938.67 x10E3/uL
ALANINE AMINOTRANSFERASE [4]: 50 u/L
ALBUMIN [4]: 4.2 G/DL
ALKALINE PHOSPHATASE [4]: 312.33 u/L
ASPARTATE AMINOTRANSFERASE [4]: 77 u/L
BLOOD UREA NITROGEN [4]: 17.33 mg/dL
CARBON DIOXIDE [4]: 27 mmol/L
CHLORIDE [4]: 103.67 MEQ/L
CHOLESTEROL [4]: 66 mg/dL
CREATINE PHOSPHOKINASE [4]: 146.67 u/L
CREATININE [4]: 0.2 mg/dL
GLUCOSE [4]: 146.33 mg/dL
LACTATE DEHYDROGENASE [4]: 121 u/L
LIPASE [4]: 8.67 u/L
PHOSPHORUS [4]: 12.63 mg/dL
POTASSIUM [4]: 6.86 MEQ/L
SODIUM [4]: 148.7 MEQ/L
TOTAL BILIRUBIN [4]: 0.2 mg/dL
TOTAL PROTEIN [4]: 6 G/DL
URIC ACID [4]: 1.4 mg/dL
